Results published in patent US20130252890A1, “6,7-DIHYDRO-5H-BENZO[7]ANNULENE DERIVATIVES, PROCESS FOR PREPARATION THEREOF, PHARMACEUTICAL PREPARATIONS COMPRISING THEM, AND THE USE THEREOF FOR PRODUCTION OF MEDICAMENTS” (BAYER INTELLECTUAL PROPERTY GMBH, priority 2010, published 2013).

Legend:
[1] = test system: ovarian estradiol synthesis; test: Stimulation of ovarian oestrogen synthesis (HPG axis) in intact adult rats; assay type: in vivo, rat; settings: hormonally intact adult rats, daily for 10 days; quotient of peripheral estradiol values after and before treatment
Description: The clinical use both of pure anti-oestrogens and of various SERMs for the treatment of premenopausal women is limited by their property of stimulating the ovaries through activation of the hypothalamic-pituitary-gonadal axis (HPG axis), which leads to the increase in peripheral estradiol levels (Palomba, S., Orio, F., Jr., Morelli, M., Russo, T., Pellicano, M., Zupi, E., Lombardi, G., Nappi, C., Panici, P. L., and Zullo, F. (2002). Raloxifene administration in premenopausal women with uterine leiomyomas: a pilot study. J Clin Endocrinol Metab 87, 3603-3608). This stimulation of the HPG axis is associated with penetration of the blood-brain barrier and penetration of the brain. To investigate the ovary-stimulating properties of the claimed pharmacological compounds, hormonally intact adult rats were treated with the substances daily for a period of 10 days. The study end point is the quotient of peripheral estradiol values after and before treatment.

uterus = test: Anti-uterus growth test in the adult rat; settings: sc, 72 h; ovariectomized adult rat, s.c. 3 days with 1.5 μg/kg/day 17β-estradiol; inhibition of uterus growth; value of 44 is a mean of two measurements; read-out: anti-oestrogenic activity in vivo in % at a dose of 0.3 mg/kg (rat)
Description: The uterus of oestrogen-substituted rats can be used as a test model for detecting a direct action of substances with anti-oestrogenic properties. The parameter of oestrogenic action is estradiol-induced uterus growth in rats, which is inhibited by simultaneous administration of a substance with anti-oestrogenic action. The experimental animals (n=5-6 animals/group) were ovariectomized before the start of the test, to rule out the influence of endogenous oestrogens. After a phase of 6 to 10 days, the test substances are administered s.c. on 3 consecutive days (d1-d3) in combination with a substitution dose of 1.5 μg/kg/day 17β-estradiol. 17β-estradiol alone serves as positive control, and the excipients serve as negative control. On day 4 (d4) the animals are killed, and the uteri and vaginae are removed and weighed. The organ weights are converted to mg/100 g body weight, then the mean value and the standard deviation are calculated for each dosage. The inhibition of uterus growth induced by 17β-estradiol is shown as percentage inhibition.

Stimulation of ovarian oestrogen synthesis: factor at a dose of 3 mg/kg rat [1]: 1.2
Compound: CN(CCCCCCC1=C(c2cc(F)cc(F)c2)CCCc2cc(O)ccc21)CCCCS(=O)(=O)CCCC(F)(F)F [Example 44, 8-(3,5-Difluorophenyl)-9-[6-(methyl{4-[(4,4,4-trifluorobutyl)sulphonyl]butyl}amino)hexyl]-6,7-dihydro-5H-benzo[7]annulen-3-ol]
inhibition in vivo at 0.3 mg/kg (uterus): 37%
